Assay results reported in US20060040876A1, “Modulation of peroxisome proliferator-activated receptors” (priority 2004, published 2006).

Assays:
[1] = system: 15-keto prostaglandin-Δ^13-reductase; assay: 15-keto prostaglandin-Δ^13-reductase inhibition assay; type: biochemical; settings: different concentrations of inhibitor, incubated 2 hours at 37° C.
Description: Enzymatic activity was determined as follows. 10 μg of the recombinant mouse PGR-2 protein was incubated at 37° C. in a reaction buffer containing 0.1M Tris-HCl (pH 7.4), 0.5 mM NADPH, and 0.57 mM 15-keto PGE2. The reaction was conducted at 37° C. in the dark for 10 minutes and terminated by adding 700 μl of a buffer which contained 50 mM potassium hydrogen phthalate, pH 3.0, and 1% Tween 20. 200 μl of a color development reagent, which contained 790 μM indonitrotetrazolium chloride, 60 μM phenazene methosulfate, and 1% Tween 20, was added to oxidize any unreacted NADPH. Absorbance at 490 nm was measured by an ELISA plate reader. A standard curve was generated using reaction buffers containing serially diluted amounts of NADPH. […]
A series of compounds were tested for their inhibitory effects on 15-keto prostaglandin-Δ^13-reductase activity. The inhibition assay was performed following the procedure described above. Different concentrations of 15-keto prostaglandin-Δ^13-reductase inhibitors were added to the reaction mixture and incubated for 2 hours at 37° C.

[2] = system: Female diabetic mice (C57BLKS/J-m+/+Lep^db); assay: Blood glucose levels in insulin-resistant, hyperglycemic diabetic mice; type: in vivo, mouse; settings: 25 mg/kg intraperitoneally twice a day for two days
Description: The in vivo effect of another inhibitor, 2,2′-dihydroxychalcone, on glucose metabolism was also investigated. Female diabetic mice were obtained from the Jackson Laboratory (C57BLKS/J-m+/+Lep^db, 12 to 13 weeks old). These mice were characterized as insulin-resistant and hyperglycemic. 25 mg/kg of 2,2′-dihydroxychalcone (n=8) or placebo (n=4, final concentration against body fluid: 0.5% DMSO/1% ethanol) was injected intraperitoneally to the mice twice a day for two days. The mice were then fasted from the 48th hour through 52nd hour after the first injection. Blood samples were collected from the retro-orbital sinus before the first injection, and every two hours after two days of treatment. Blood glucose levels were measured by an electrode-type blood glucose meter (HORIBA, AntSense II, Japan).

3T3-L1 cells [3] = assay: Glucose transport assay, uptake of 2-deoxy-D-[3H]glucose in differentiated 3T3-L1 cells; type: cell-based, mouse
Description: 3T3-L1 cells were induced to differentiate in the same manner as described above. A glucose transport assay was performed by measuring uptake of 2-deoxy-D-[3H]glucose as described by Fingar et al. See Fingar et al., Endocrinology 134:728-735. 1.67 μM of the inhibitor or 45 nM of a PPAR agonist, i.e., AVANDIA, was added to the cells. 10 μM cytochalasin-B was used to measure background glucose uptake levels.

[4] = target: T1, recombinant mouse PGR-2 protein (Mus musculus, UniProt Q8VDQ1); assay: Substrate specificity and kinetics of recombinant PGR-2 (NADPH oxidation, absorbance at 490 nm); type: biochemical; settings: for specific activity as substrate of PGR-2: 15-keto PGE2 replaced with the test substrate, 0.5 mM NADPH, 37° C., 10 minutes
T1 construct: GST (N); made in house; host or cells: E. coli
T1 sequence (Q8VDQ1 whole entry): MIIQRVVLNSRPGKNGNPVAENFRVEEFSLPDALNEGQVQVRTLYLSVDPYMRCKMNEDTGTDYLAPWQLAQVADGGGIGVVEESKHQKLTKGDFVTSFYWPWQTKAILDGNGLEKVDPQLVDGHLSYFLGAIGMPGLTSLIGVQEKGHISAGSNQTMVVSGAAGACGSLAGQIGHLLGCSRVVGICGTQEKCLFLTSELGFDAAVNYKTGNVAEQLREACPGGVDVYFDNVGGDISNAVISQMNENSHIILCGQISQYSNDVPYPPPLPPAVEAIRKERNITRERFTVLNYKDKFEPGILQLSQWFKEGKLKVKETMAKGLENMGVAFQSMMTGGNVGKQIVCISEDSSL
Description: Mouse PGR-2 was recombinantly expressed in E. coli as a GST fusion protein following standard procedures. The recombinant PGR-2 protein thus obtained was used to determine substrate specificity and enzymatic kinetics.
Enzymatic activity was determined as follows. 10 μg of the recombinant mouse PGR-2 protein was incubated at 37° C. in a reaction buffer containing 0.1M Tris-HCl (pH 7.4), 0.5 mM NADPH, and 0.57 mM 15-keto PGE2. The reaction was conducted at 37° C. in the dark for 10 minutes and terminated by adding 700 μl of a buffer which contained 50 mM potassium hydrogen phthalate, pH 3.0, and 1% Tween 20. 200 μl of a color development reagent, which contained 790 μM indonitrotetrazolium chloride, 60 μM phenazene methosulfate, and 1% Tween 20, was added to oxidize any unreacted NADPH. Absorbance at 490 nm was measured by an ELISA plate reader. A standard curve was generated using reaction buffers containing serially diluted amounts of NADPH.
Substrate specificity of PGR-2 was determined using the just-described procedure, except that 15-keto PGE2 was replaced with each of six prostaglandin substrates, each of three downstream metabolites, or leukotriene B4.
Unlike PGR/LTB4DH, PGR-2 used NADPH as a cofactor much more efficiently than NADH.

endogenous PPAR = assay: Reporter gene assay of endogenous PPAR activity in differentiating 3T3-L1 cells; type: cell-based, mouse; settings: 3T3-L1 cells induced to differentiate for two days, transfected with reporter gene
Description: (§1) The effect of prostaglandin on PPAR-gamma activity in adipocytes was investigated. After treatment with a medium that induces cell differentiation, 3T3-L1 cells were treated from day 2 to 4 during adipogenesis with 14 μM 15-keto PGE2, 13,14-dihydro-15-keto PGE2, 15-keto PGF2α, 13,14-dihydro-15-keto PGF2α, or 4.5 μM of BRL49653, a PPAR-gamma agonist. See Forman et al., Cell (1995) 83:803-812. At day 6, aggregates of lipid droplets were stained with oil-red O for observation. […] After being induced to differentiate for two days, the 3T3-L1 cells were transfected with a reporter gene.

aP2 = aP2 expression in 3T3-L1 cells; type: cell-based, mouse; settings: even in the absence of MIX
[5] = system: PPAR-gamma1 and PPAR-gamma2; assay: PPAR-gamma1 and PPAR-gamma2 protein expression in 3T3-L1 cells; type: cell-based, mouse; settings: 15-keto PGE2 and MIX added with insulin and dexamethasone
IRS-2 = IRS-2 protein expression in 3T3-L1 cells; type: cell-based, mouse; settings: in the presence of insulin and dexamethasone
Source text: (§2) Also examined was the ability of 15-keto PGE2 to induce protein expression of adipogenesis-specific, PPAR-gamma target genes, i.e., IRS-1 and -2.

IRS-1 = IRS-1 protein expression in 3T3-L1 cells; type: cell-based, mouse
Source text: as §2

3T3-L1 cells [6] = assay: Adipogenesis in 3T3-L1 cells, lipid droplets stained with oil-red O; type: cell-based, mouse; settings: 14 μM, day 2 to 4 during adipogenesis; stained at day 6
Description: as §1

PPAR-gamma = target: T2, PPAR-gamma (Homo sapiens, UniProt P37231); assay: Luciferase reporter with PPAR-gamma ligand-binding domain fused to GAL4 DNA-binding domain in 3T3-L1 cells; type: cell-based
T2 construct: expressed in transfected cells; host or cells: 3T3-L1 cells
T2 sequence (P37231 238-503 limits assumed): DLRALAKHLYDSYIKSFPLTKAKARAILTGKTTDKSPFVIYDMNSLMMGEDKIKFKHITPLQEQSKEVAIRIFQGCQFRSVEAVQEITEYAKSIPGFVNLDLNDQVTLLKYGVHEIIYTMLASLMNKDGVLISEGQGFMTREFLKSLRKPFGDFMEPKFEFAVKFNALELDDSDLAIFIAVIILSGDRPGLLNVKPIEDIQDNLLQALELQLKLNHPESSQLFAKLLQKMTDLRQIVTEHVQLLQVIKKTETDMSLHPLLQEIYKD
Source text: A luciferase reporter gene was transfected to 3T3-L1 cells together with the ligand-binding domain of PPAR-alpha, PPAR-gamma or PPAR-delta fused to a yeast GAL4 DNA-binding domain.

Row | Compound | inhibition of 15-keto prostaglandin-Δ^13-reductase activity [1] | specific activity as substrate of PGR-2 [4] | other results
1 | O=C(/C=C/c1ccccc1O)c1ccc(O)cc1O [2,2′,4′-trihydroxychalcone] | inhibited | – | –
2 | O=C(/C=C/c1ccccc1O)c1cc(O)ccc1O [2,2′,5′-trihydroxychalcone] | inhibited | – | –
3 | O=C(/C=C/c1ccccc1O)c1ccccc1O [2,2′-dihydroxychalcone] | inhibited | – | blood glucose levels compared to placebo controls [2]: significant reduction
4 | O=C(/C=C/c1ccccc1)c1ccc(O)cc1O [2′,4′-dihydroxychalcone] | inhibited | – | –
5 | O=C(/C=C/c1cccc(O)c1)c1ccccc1O [3,2′-dihydroxychalcone] | inhibited | – | –
6 | O=c1c(O)c(-c2cccc(O)c2)oc2ccccc12 [3,3′-dihydroxyflavone] | inhibited | – | –
7 | O=c1oc2ccccc2c(O)c1Cc1c(O)c2ccccc2oc1=O [3,3′-methylene-bis(4-hydroxycoumarin)] | inhibited | – | ability to enhance glucose uptake compared with AVANDIA (3T3-L1 cells [3]; 1.67 μM inhibitor vs 45 nM AVANDIA): comparable to that of AVANDIA; increase of glucose uptake (3T3-L1 cells [3]; 1.67 μM inhibitor, 100 nM insulin, differentiated 3T3-L1 cells): 30 folds
8 | O=C(/C=C/c1ccc(O)cc1)c1ccccc1O [4,2′-dihydroxychalcone] | inhibited | – | –
9 | O=c1cc(O)c2ccccc2o1 [4-hydroxycoumarin] | inhibited | – | –
10 | O=c1cc(-c2ccccc2)oc2cc(O)cc(O)c12 [5,7-dihydroxyflavone] | inhibited | – | –
11 | COc1cc(O)c(C(=O)/C=C/c2cc(Br)ccc2O)c(OC)c1 [5-bromo-2,2′-dihydroxy-4′,6′-dimethoxychalcone] | inhibited | – | –
12 | CCCCC[C@H](O)/C=C/[C@@H]1[C@@H](CC(=O)CCCCC(=O)O)[C@@H](O)C[C@H]1O [6-keto PGF1α] | – | no specific activity was detected | –
13 | CCCCC[C@H](O)/C=C/[C@@H]1[C@@H](C/C=C\CCCC(=O)O)[C@@H](O)C[C@@H]1O [11b-PGF2α] | – | no specific activity was detected | –
14 | CCCCCC(=O)CCC1C(=O)CC(O)C1C/C=C\CCCC(=O)O (stereo not shown) [13,14-dihydro-15-keto PGD2] | – | no specific activity was detected | –
15 | CCCCCC(=O)CC[C@H]1[C@H](O)CC(=O)[C@@H]1C/C=C\CCCC(=O)O [13,14-dihydro-15-keto PGE2, reference compound] | – | no specific activity was detected | endogenous PPAR activity (reporter gene) (endogenous PPAR): failed to increase PPAR activity
16 | CCCCCC(=O)CC[C@@H]1[C@@H](C/C=C\CCCC(=O)O)[C@@H](O)C[C@H]1O [13,14-dihydro-15-keto PGF2α, reference compound] | – | no specific activity was detected | endogenous PPAR activity (reporter gene) (endogenous PPAR): failed to increase PPAR activity
17 | CCCCCC(=O)/C=C/[C@H]1[C@H](O)CC(=O)[C@@H]1CCCCCCC(=O)O [15-keto PGE1] | – | reacted specifically | –
18 | CCCCCC(=O)/C=C/[C@H]1[C@H](O)CC(=O)[C@@H]1C/C=C\CCCC(=O)O [15-keto PGE2] | – | – | efficiency of PGR-2 catalyzed conversion into 13,14-dihydro-15-keto prostaglandin ([4]; kinetics studies, recombinant PGR-2): most efficiently; expression of aP2 (aP2): strongly induced; PPAR-gamma1 and PPAR-gamma2 expression [5]: significantly enhanced; IRS-2 expression (IRS-2): enhanced the expression to a level similar to MIX; amount of IRS-1 protein (IRS-1): did not increase; endogenous PPAR activity (reporter gene) (endogenous PPAR): enhanced endogenous PPAR activity significantly; adipogenesis (lipid droplets, oil-red O) (3T3-L1 cells [6]): effectively enhanced adipogenesis at a level similar to BRL49653; activation of PPAR-gamma (GAL4-LBD luciferase reporter) (PPAR-gamma): activated
19 | CCCCCC(=O)/C=C/[C@@H]1[C@@H](CCCCCCC(=O)O)[C@@H](O)C[C@H]1O [15-keto PGF1α] | – | reacted specifically | –
20 | CCCCCC(=O)/C=C/[C@@H]1[C@@H](C/C=C\CCCC(=O)O)[C@@H](O)C[C@H]1O [15-keto PGF2α] | – | reacted specifically | endogenous PPAR activity (reporter gene) (endogenous PPAR): enhanced endogenous PPAR activity significantly; activation of PPAR-gamma (GAL4-LBD luciferase reporter) (PPAR-gamma): activated
21 | CCCCC[C@H](O)/C=C/[C@@H]1[C@@H](C/C=C\CCCC(=O)O)[C@H](O)C[C@H]1O [PGF2β] | – | no specific activity was detected | –
22 | O=c1c(O)c(-c2ccc(O)cc2)oc2cc(O)cc(O)c12 [kaempferol] | inhibited | – | –
23 | CCCCC/C=C\C[C@@H](O)/C=C/C=C/C=C\[C@@H](O)CCCC(=O)O [leukotriene B4] | – | no specific activity was detected | –
24 | O=c1cc(-c2ccc(O)c(O)c2)oc2cc(O)cc(O)c12 [luteolin] | inhibited | – | –
25 | O.O.O=c1c(O)c(-c2ccc(O)c(O)c2)oc2cc(O)cc(O)c12 [quercetin dehydrate] | inhibited | – | –
26 | CC(=O)CC(c1ccccc1)c1c(O)c2ccccc2oc1=O (stereo not shown) [warfarin, reference compound] | inhibited | – | –
